For 29 molecules, IC50 results are on record in US6455550B1, “N-alkanoylphenylalanine derivatives” (Hoffmann-La Roche Inc., priority 1997, dated 2002).

Read-outs that look alike come from different tables or passages of the source.

The target in assay [1] is T1, VLA-4 (α4β1 integrin) binding to immobilized VCAM-1 (Homo sapiens, UniProt P05556+P13612).
T1 construct: followed by 10 μl of Ramos cell-derived VLA-4; endogenous in cells; host or cells: Ramos cells (VLA-4 preparation derived from the cells)
T1 sequence (P13612 34-1032): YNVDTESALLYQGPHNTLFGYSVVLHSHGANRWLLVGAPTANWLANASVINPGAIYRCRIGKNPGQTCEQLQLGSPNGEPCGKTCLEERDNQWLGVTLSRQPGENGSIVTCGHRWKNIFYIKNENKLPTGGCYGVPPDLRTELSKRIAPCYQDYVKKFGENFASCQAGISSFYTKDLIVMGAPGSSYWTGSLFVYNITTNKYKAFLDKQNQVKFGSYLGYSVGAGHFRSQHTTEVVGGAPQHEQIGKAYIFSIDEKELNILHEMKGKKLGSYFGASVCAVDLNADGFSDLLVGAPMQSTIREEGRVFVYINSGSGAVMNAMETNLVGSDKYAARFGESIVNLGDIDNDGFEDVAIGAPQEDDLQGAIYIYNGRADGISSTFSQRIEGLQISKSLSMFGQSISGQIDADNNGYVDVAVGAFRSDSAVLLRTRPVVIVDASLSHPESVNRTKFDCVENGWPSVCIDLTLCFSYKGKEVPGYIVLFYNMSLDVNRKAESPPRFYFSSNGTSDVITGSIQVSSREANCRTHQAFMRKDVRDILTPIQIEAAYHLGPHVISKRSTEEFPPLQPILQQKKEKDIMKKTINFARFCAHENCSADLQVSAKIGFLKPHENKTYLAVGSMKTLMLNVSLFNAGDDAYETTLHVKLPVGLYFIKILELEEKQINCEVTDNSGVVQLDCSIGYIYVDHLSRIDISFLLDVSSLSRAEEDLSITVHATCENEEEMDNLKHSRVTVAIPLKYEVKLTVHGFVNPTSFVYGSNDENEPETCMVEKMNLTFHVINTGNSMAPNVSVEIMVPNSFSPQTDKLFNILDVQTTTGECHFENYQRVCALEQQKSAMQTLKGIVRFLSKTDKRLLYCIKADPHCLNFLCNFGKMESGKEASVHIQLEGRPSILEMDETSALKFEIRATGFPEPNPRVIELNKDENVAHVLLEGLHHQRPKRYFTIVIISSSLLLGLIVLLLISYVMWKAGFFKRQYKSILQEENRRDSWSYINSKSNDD
T1 sequence (P05556 21-798): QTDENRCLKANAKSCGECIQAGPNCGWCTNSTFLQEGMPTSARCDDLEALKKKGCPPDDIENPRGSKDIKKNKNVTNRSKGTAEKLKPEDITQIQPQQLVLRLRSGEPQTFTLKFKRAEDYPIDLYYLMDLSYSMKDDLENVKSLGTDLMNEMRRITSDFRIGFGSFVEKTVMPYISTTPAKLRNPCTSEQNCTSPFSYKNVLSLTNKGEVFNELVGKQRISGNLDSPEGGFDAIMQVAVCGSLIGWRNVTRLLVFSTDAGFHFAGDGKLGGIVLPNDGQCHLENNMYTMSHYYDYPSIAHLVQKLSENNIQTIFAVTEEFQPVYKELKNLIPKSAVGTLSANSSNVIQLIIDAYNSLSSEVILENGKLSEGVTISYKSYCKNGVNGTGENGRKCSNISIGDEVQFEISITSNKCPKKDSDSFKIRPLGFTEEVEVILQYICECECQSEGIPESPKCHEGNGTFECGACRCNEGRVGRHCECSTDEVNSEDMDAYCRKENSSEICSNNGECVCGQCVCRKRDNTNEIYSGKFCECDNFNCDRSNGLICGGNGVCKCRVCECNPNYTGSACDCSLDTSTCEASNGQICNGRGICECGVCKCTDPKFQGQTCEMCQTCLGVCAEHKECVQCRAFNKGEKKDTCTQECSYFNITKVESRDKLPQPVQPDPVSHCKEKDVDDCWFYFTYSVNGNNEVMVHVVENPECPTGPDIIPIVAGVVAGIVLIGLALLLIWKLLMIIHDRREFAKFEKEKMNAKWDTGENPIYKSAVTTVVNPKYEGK
In words: VLA-4/VCAM-1 Screening Assay (solid-phase, dual antibody ELISA). Here is the method:
VLA-4 antagonist activity, defined as ability to compete for binding to immobilized VCAM-1 was quantitated using a solid-phase, dual antibody ELISA. VLA-4 (α4β1 integrin) bound to VCAM-1 was detected by a complex of anti-integrin β1 antibody: HRP-conjugated anti-mouse IgG: chromogenic substrate (K-Blue). Initially, this entailed coating 96 well plates (Nunc Maxisorp) with recombinant human VCAM-1 (0.4 μg in 100 μl PBS), sealing each plate and then allowing the plates to stand at 4° C for Å18 hr. […] On the day of assay, all plates were washed twice with VCAM Assay Buffer (200 μl/well of 50 mM Tris-HCl, 100 mM NaCl, 1 mM MnCl2, 0.05% Tween 20; pH 7.4). Test compounds were dissolved in 100% DMSO and then diluted 1:20 in VCAM Assay Buffer supplemented with 1 mg/mL BSA (i.e., final DMSO=5%). […] 100 μl per well of each dilution was added to the VCAM-coated plates, followed by 10 μl of Ramos cell-derived VLA-4. These plates were sequentially mixed on a platform shaker for 1 min, incubated for 2 hr at 37° C. and then washed four times with 200 μl/well VCAM Assay Buffer. 100 μl of mouse anti-human integrin β1 antibody was added to each well (0.6 μg/mL in VCAM Assay Buffer+1 mg/mL BSA) and allowed to incubate for 1 hr at 37° C. At the conclusion of this incubation period, all plates were washed four times with VCAM Assay Buffer (200 μl/well). A corresponding second antibody, HRP-conjugated goat anti-mouse IgG (100 μl per well @1:800 dilution in VCAM Assay Buffer+1 mg/mL BSA), was then added to each well, followed by a 1 hr incubation at room temperature and concluded by three washes (200 μl/well) with VCAM Assay Buffer. Color development was initiated by addition of 100 μl K-Blue per well (15 min incubation, room temp) and terminated by addition of 100 μl Red Stop Buffer per well. […] Results were calculated as % inhibition of total binding (i.e., VLA-4+VCAM-1 in the absence of test compound).

In assay [2] the target is T2, cell-surface VLA-4 (α4β1 integrin) on Ramos cells binding to immobilized VCAM-1 (Homo sapiens, UniProt P05556+P13612).
T2 construct: Ramos cells bearing cell-surface VLA-4; endogenous in cells; host or cells: Ramos cells (VLA-4); VCAM-1 purified from CHO cell culture media
T2 sequence (P13612 34-1032): as the sequence (P13612 34-1032) above
T2 sequence (P05556 21-798): as the sequence (P05556 21-798) above
The experiment in a line: Ramos (VLA-4)/VCAM-1 Cell-Based Screening Assay (cell adhesion). From the text: Calcein-AM was purchased from Molecular Probes Inc.
VLA-4 (α4β1 integrin) antagonist activity, defined as ability to compete with cell-surface VLA-4 for binding to immobilized VCAM-1, was quantitated using a Ramos-VCAM-1 cell adhesion assay. Ramos cells bearing cell-surface VLA-4, were labeled with a fluorescent dye (Calcein-AM) and allowed to bind VCAM-1 in the presence or absence of test compounds.
Initially, this entailed coating 96 well plates (Nunc Maxisorp) with recombinant human VCAM-1 (100 ng in 100 μl PBS), sealing each plate and allowing the plates to stand at 4° C for Å18 hr. The VCAM-coated plates were subsequently washed twice with 0.05% Tween-20 in PBS, and then blocked for 1hr (room temperature) with 200 μl of Blocking Buffer (1% BSA/0.02% thimerosal) to reduce non-specific binding. Following the incubation with Blocking Buffer, plates were inverted, blotted and the remaining buffer aspirated. Each plate was then washed with 300 μl PBS, inverted and the remaining PBS aspirated.
Test compounds were dissolved in 100% DMSO and then diluted 1:25 in VCAM Cell Adhesion Assay Buffer (4 mM CaCl2, 4 mM MgCl2 in 50 mM TRIS-HCl, pH 7.5) (final DMSO=4%). […] 100 μl/well of each dilution was added to the VCAM-coated plates, followed by 100 μl of Ramos cells (200,000 cells/well in 1% BSA/PBS). […] Plates were inverted to remove non-adherent cells, blotted and 300 μl/well PBS added. Plates were again inverted, blotted and the remaining buffer gently aspirated. 100 μl Lysis Buffer (0.1% SDS in 50 mM TRIS-HCl, pH 8.5) was added to each well and agitated for 2 min on a rotary shaking platform.

The mark [3] stands for this setting: Ramos cell-derived VLA-4, recombinant human VCAM-1 coated plates, 2 hr at 37° C., read-out: IC50.
[4] abbreviates: Calcein-AM labeled Ramos cells, VCAM-1 coated plates, 45 min at room temperature, read-out: IC50 in Ramos Cell Based Assay.
Setting [5] is: IC50 nM, Ramos cell-derived VLA-4, recombinant human VCAM-1 coated plates, 2 hr at 37° C.
Setting [6] is: IC50 in Ramos Cell Based Assay (nM), Calcein-AM labeled Ramos cells, VCAM-1 coated plates, 45 min at room temperature.

For the molecule `COC(=O)NCCC1(C(=O)N[C@@H](Cc2ccc(NC(=O)c3c(Cl)cccc3Cl)cc2)C(=O)O)CCCC1` [Example 193], the IC50 in assay [1] (setting [3]) is 0.55 nM; in assay [2] (setting [4]) it was 40 nM.

Consider `CC(C)(C)OC(=O)NCC(=O)NCCC1(C(=O)N[C@@H](Cc2ccc(NC(=O)c3c(Cl)cccc3Cl)cc2)C(=O)O)CCCC1` [Example 216, 4-[[(2,6-dichlorophenyl)carbonyl]amino]-N-[[1-[2-[[2-[[(1,1-dimethylethoxy)carbonyl]amino]-1-oxoethyl]amino]ethyl]cyclopentyl]carbonyl]-L-phenylalanine], for which the IC50 in assay [1] (setting [3]) was 2.9 nM; in assay [2] (setting [4]) it was 356 nM.

Take `Cn1nnnc1-c1ccc(CC2(C(=O)N[C@@H](Cc3ccc(NC(=O)c4c(Cl)cccc4Cl)cc3)C(=O)O)CCC2)cc1` [Example 57]: the IC50 in assay [1] (setting [5]) was 0.42 nM; in assay [2] (setting [6]), 27 nM.

Turning to `COCCCCC1(C(=O)N[C@@H](Cc2ccc(NC(=O)c3c(Cl)cccc3Cl)cc2)C(=O)O)CCCC1` [Example 250], the IC50 in assay [1] (setting [5]) is 0.32 nM; in assay [2] (setting [4]) it was 28 nM.

In the case of `C/N=C(\S)NCCC1(C(=O)N[C@@H](Cc2ccc(NC(=O)c3c(Cl)cccc3Cl)cc2)C(=O)O)CCCC1` [Example 192], the 50% inhibitory concentration (IC50) in assay [1] (setting [5]) was 0.14 nM; in assay [2] (setting [6]), 22 nM.

Take `N#CCC1(C(=O)N[C@@H](Cc2ccc(NC(=O)c3c(Cl)cccc3Cl)cc2)C(=O)O)CCCC1` [Example 272]: the IC50 in assay [1] (setting [3]) is 1 nM; in assay [2] (setting [6]), 96 nM.

With `CC(=O)N(C)CCC1(C(=O)N[C@@H](Cc2ccc(NC(=O)c3c(Cl)cccc3Cl)cc2)C(=O)O)CCCC1` [Example 200, 4-[[(2,6-Dichlorophenyl)carbonyl]amino]-N-[[1-[2-[(acetyl)(methyl)amino]ethyl]cyclopentyl]carbonyl]-L-phenylalanine], the IC50 in assay [1] (setting [3]) was 0.81 nM; in assay [2] (setting [4]) it was 19 nM.

`COc1ccc(CC2(C(=O)N[C@@H](Cc3ccc(NC(=O)c4c(Cl)cccc4Cl)cc3)C(=O)O)CCCC2)cc1` [Example 95]: the half-maximal inhibitory concentration (IC50) is 0.69 nM in assay [1] (setting [3]) and 34.5 nM in assay [2] (setting [4]).

For `CC(C)(C)OC(=O)NCCC1(C(=O)N[C@@H](Cc2ccc(NC(=O)c3c(Cl)cccc3Cl)cc2)C(=O)O)CCCC1` [Example 254], the IC50 in assay [1] (setting [3]) is 2 nM; in assay [2] (setting [4]), 360 nM.

Turning to `O=C(NCCC1(C(=O)N[C@@H](Cc2ccc(NC(=O)c3c(Cl)cccc3Cl)cc2)C(=O)O)CCCC1)c1ccno1` [Example 158], the figures for the IC50 in assay [1] (setting [3]) and in assay [2] (setting [4]) were 5 nM and 124 nM, respectively.

Turning to `COC(=O)N(C)CCC1(C(=O)N[C@@H](Cc2ccc(NC(=O)c3c(Cl)cccc3Cl)cc2)C(=O)O)CCCC1` [Example 202, 4-[[(2,6-Dichlorophenyl)carbonyl]amino]-N-[[1-[2-[(methoxycarbonyl)(methyl)amino]ethyl]cyclopentyl]carbonyl]-L-phenylalanine], the IC50 in assay [1] (setting [3]) is 1 nM; in assay [2] (setting [4]), 31 nM.

On to `C=CCCC1(C(=O)N[C@@H](Cc2ccc(NC(=O)c3c(Cl)cccc3Cl)cc2)C(=O)O)CCCC1` [Example 271], for which the IC50 in assay [1] (setting [5]) was 0.55 nM; in assay [2] (setting [4]) it was 67 nM.

For `NCCC1(C(=O)N[C@@H](Cc2ccc(NC(=O)c3c(Cl)cccc3Cl)cc2)C(=O)O)CCCC1` [Example 252], the IC50 was 5.1 nM in assay [1] (setting [5]) and 228 nM in assay [2] (setting [6]).

Regarding `Cn1nnnc1-c1ccc(CC2(C(=O)N[C@@H](Cc3ccc(NC(=O)c4c(Cl)cccc4Cl)cc3)C(=O)O)CCCC2)cc1` [Example 55], the IC50 was 0.47 nM in assay [1] (setting [5]) and 18.5 nM in assay [2] (setting [4]).

Take `COC(=O)CCC(=O)NCCC1(C(=O)N[C@@H](Cc2ccc(NC(=O)c3c(Cl)cccc3Cl)cc2)C(=O)O)CCCC1` [Example 163]: the IC50 in assay [1] (setting [3]) was 2.4 nM; in assay [2] (setting [4]) it was 85 nM.

As for `O=C(Nc1ccc(C[C@H](NC(=O)C2(CCN3CCOCC3)CCCC2)C(=O)O)cc1)c1c(Cl)cccc1Cl` [Example 256], the figures for the 50% inhibitory concentration (IC50) in assay [1] (setting [5]) and in assay [2] (setting [6]) were 2.4 nM and 151 nM, respectively.

For the molecule `Cn1nnnc1-c1cccc(CC2(C(=O)N[C@@H](Cc3ccc(NC(=O)c4c(Cl)cccc4Cl)cc3)C(=O)O)CCC2)c1` [Example 56], the IC50 in assay [1] (setting [3]) is 0.94 nM; in assay [2] (setting [4]), 31.5 nM.

For `NCC(=O)NCCC1(C(=O)N[C@@H](Cc2ccc(NC(=O)c3c(Cl)cccc3Cl)cc2)C(=O)O)CCCC1` [Example 217, 4-[[(2,6-dichlorophenyl)carbonyl]amino]-N-[[1-[2-[(2-amino-1-oxoethyl)amino]ethyl]yclopentyl]carbonyl]-L-phenylalanine], the IC50 was 2 nM in assay [1] (setting [3]) and 211 nM in assay [2] (setting [4]).

Turning to `CC(=O)NCCCCC1(C(=O)N[C@@H](Cc2ccc(NC(=O)c3c(Cl)cccc3Cl)cc2)C(=O)O)CCCC1` [Example 259], the IC50 was 3.6 nM in assay [1] (setting [5]) and 129 nM in assay [2] (setting [6]).

Regarding `COCC(=O)NCCC1(C(=O)N[C@@H](Cc2ccc(NC(=O)c3c(Cl)cccc3Cl)cc2)C(=O)O)CCCC1` [Example 162], the IC50 in assay [1] (setting [3]) was 1.2 nM; in assay [2] (setting [4]), 23 nM.

Turning to `CCCCC1(C(=O)N[C@@H](Cc2ccc(NC(=O)c3c(Cl)cccc3Cl)cc2)C(=O)O)CCCC1` [Example 270], the IC50 in assay [1] (setting [5]) was 1.1 nM; in assay [2] (setting [6]) it was 150 nM.

With `O=C(NCCC1(C(=O)N[C@@H](Cc2ccc(NC(=O)c3c(Cl)cccc3Cl)cc2)C(=O)O)CCCC1)c1ccncc1` [Example 160], the figures for the IC50 in assay [1] and in assay [2] were 5.8 nM and 328 nM, respectively.

As to `O=C(Nc1ccc(C[C@H](NC(=O)C2(CCCCO)CCCC2)C(=O)O)cc1)c1c(Cl)cccc1Cl` [Example 255], the IC50 is 0.5 nM in assay [1] (setting [5]) and 27 nM in assay [2] (setting [6]).

On to `O=C(Nc1ccc(C[C@H](NC(=O)C2(CCNC(=O)C3CCCN3C(=O)C(F)(F)F)CCCC2)C(=O)O)cc1)c1c(Cl)cccc1Cl` (stereo partly shown) [Example 159], for which the IC50 in assay [1] (setting [3]) is 6.4 nM; in assay [2] (setting [4]), 313 nM.

With `CSCCC1(C(=O)N[C@@H](Cc2ccc(NC(=O)c3c(Cl)cccc3Cl)cc2)C(=O)O)CCCC1` [Example 249], the IC50 in assay [1] (setting [5]) was 0.29 nM; in assay [2] (setting [6]), 62 nM.

Take `Cc1cc([N+](=O)[O-])ccc1C(=O)Nc1ccc(C[C@H](NC(=O)C2(C)CC2(Cl)Cl)C(=O)O)cc1` (stereo partly shown) [Example 100]: the IC50 was 0.26 nM in assay [1] (setting [3]) and 54.5 nM in assay [2] (setting [4]).

As to `CNC(=O)NCCC1(C(=O)N[C@@H](Cc2ccc(NC(=O)c3c(Cl)cccc3Cl)cc2)C(=O)O)CCCC1` [Example 187, 4-[[(2,6-Dichlorophenyl)carbonyl]amino]-N-[[1-[2-[[(methylamino)carbonyl]amino]ethyl]cyclopentyl]carbonyl]-L-phenylalanine], the figures for the IC50 in assay [1] (setting [3]) and in assay [2] (setting [4]) were 0.26 nM and 5.7 nM, respectively.

In the case of `COc1ccc(C(=O)NCCC2(C(=O)N[C@@H](Cc3ccc(NC(=O)c4c(Cl)cccc4Cl)cc3)C(=O)O)CCCC2)cc1` [Example 257], the IC50 is 40 nM in assay [1] (setting [5]) and 635 nM in assay [2] (setting [6]).

Regarding `[N-]=[N+]=NCCC1(C(=O)N[C@@H](Cc2ccc(NC(=O)c3c(Cl)cccc3Cl)cc2)C(=O)O)CCCC1` [Example 58], the IC50 was 0.58 nM in assay [1] (setting [3]) and 47 nM in assay [2] (setting [6]).
